Laboratory results published in PubChem BioAssay (NCI).
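Assay format: 96-well plates, 48-hour exposure. Here, GI50 denotes the concentration required for 50% inhibition of growth. Definition used: TGI = concentration required for complete inhibition of growth.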

Key:
Experiment in all cases: inhibition of tumour cell growth, NCI panel, 48 h
TK-10 renal = test system: TK-10 renal
SK-MEL-5 melanoma = test system: SK-MEL-5 melanoma
BT-549 breast = test system: BT-549 breast
MALME-3M melanoma = test system: MALME-3M melanoma
SF-539 CNS = test system: SF-539 CNS
NCI-H226 lung = test system: NCI-H226 lung
SNB-19 CNS = test system: SNB-19 CNS
PC-3 prostate = test system: PC-3 prostate
OVCAR-5 ovarian = test system: OVCAR-5 ovarian
SN12C renal = test system: SN12C renal

Compound	GI50 (TK-10 renal) [µM]	TGI (TK-10 renal) [µM]	GI50 (SK-MEL-5 melanoma) [µM]	TGI (SK-MEL-5 melanoma) [µM]	GI50 (BT-549 breast) [µM]	TGI (BT-549 breast) [µM]	GI50 (MALME-3M melanoma) [µM]	TGI (MALME-3M melanoma) [µM]	GI50 (SF-539 CNS) [µM]	TGI (SF-539 CNS) [µM]	GI50 (NCI-H226 lung) [µM]	TGI (NCI-H226 lung) [µM]	GI50 (SNB-19 CNS) [µM]	TGI (SNB-19 CNS) [µM]	GI50 (PC-3 prostate) [µM]	TGI (PC-3 prostate) [µM]	GI50 (OVCAR-5 ovarian) [µM]	TGI (OVCAR-5 ovarian) [µM]	GI50 (SN12C renal) [µM]	TGI (SN12C renal) [µM]
COc1cc(C(=O)Nc2cc(O)c(CC=C(C)C)c(O)c2)cc2c1O[C@]1(C)CC[C@@H](O)C(C)(C)[C@H]1C2	2.91	42.4	1.13	3.51	0.153	12.8	2.85	20	0.0391	1.51	3.04	61.3	4.64	61.6	0.142	37.5	3.44	37	8.12	60.2
COc1cc(-c2nn(-c3cccc(NC(=O)CCN4CCN(Cc5ccccc5)CC4)c3)cc2-c2ccncc2)ccc1Cl	2.93	12.2	1.1	2.31	2.27	8.59	1.01	2.55	1.14	2.58	2.91	47.7	4.42	41.2	0.709	11.6	3.02	> 100	2.13	20.3
O=Nc1c(-c2c(O)[nH]c3ncccc23)[nH]c2ccccc12	5.52	> 100	15	> 100	5.41	> 100	8.83	> 41.5	> 100	> 100	15.3	> 100	> 100	> 100	> 26.1	> 100	96.9	> 100	5.86	> 100
COc1ccc2c(-c3ccnc(Nc4cccc(OC(F)(F)F)c4)n3)cnn2n1	4.05	12.2	1.1	9.56	1.48	> 25	5.43	> 25	0.909	3.52	> 10.3	> 25	1.67	> 23.2	0.987	> 25	3.53	> 21.1	1.75	> 18.3
C1CSCCSCCCSCCSCCCSCCSCCCSCCSC1		> 100		> 100		> 100		> 100		> 100		> 100		> 100		> 100		> 100		> 100
O=c1c2cc(F)ccc2sc2c(NCCCNCCO)nc3ccccc3c12	1.89	3.53	1.76	3.2	8.7	22	1.61	3.09	1.74	3.19	1.5	3	1.66	3.14	1.7	3.29	1.61	3.05	1.67	3.17
COc1ccc(Nc2ccnc(N3CCN(c4ccnc5cc(Cl)ccc45)CC3)n2)cc1	2.18	7.95	0.579	1.87	1.16	3.72	1.11	4.65	0.968	3.26	1.41	6.09	1.48	> 100	0.705	7.25	2.15	> 100	1.67	> 100
Nc1n[nH]c2ccc([C@@H]3Nc4cc5c(cc4[C@H]4C6CCC(C6)[C@@H]34)C(=O)NC5)cc12 (some centres undefined)	70.1	> 100	0.232	0.612	0.32	1.71	0.718	> 100	0.258	0.814	0.461	> 20.9	0.57	> 100	0.471	> 100	1.06	> 100	0.473	> 100
COc1cc2c(cc1F)C(c1ccccc1Cl)=Nc1c(n[nH]c1C)N2	4.02	18.3	0.328	6.51	2.7	20.5	18	32.7	0.389	2.39	0.532	16.3	8.69	22.3	12.3	> 50.1	6.76	22.8	1.38	18.3
COc1ccc(/C=C(\C)[N+](=O)[O-])cc1OC	1.55	3.12	2.19	5.11	1.86	3.36	1.4	3.17	1.74	3.17	19.2	40.5	11.3	23.6	2.75	7.07	1.73	3.31	2.72	8.23
C=CCc1cc(Nc2c3ccc(Cl)cc3nc3ccc(OC)cc23)cc(CN(CC)CC)c1O	1.97	11.1	1.24	2.49	1.38	8.1	1.87	6.78	2.45	9.16	1.15	10.8	2.03	21.2	1.04	4.73	6.75	26	2.03	12.1
CCc1c(C)nc2sc3c(N)ncnc3c2c1C	> 25	> 25	> 25	> 25	> 25	> 25	> 25	> 25	> 25	> 25	> 25	> 25	> 25	> 25	> 25	> 25	> 25	> 25	> 25	> 25
COC(=O)c1cc(-c2ccc(OC)c(OC)c2)[nH]c1N/N=C/c1c(Cl)cccc1Cl	1.64	9.47	0.387	4.56	0.887	3.48	0.86	31.8	0.317	1.02	1.9	> 51.3	0.673	6.98	0.538		1.91	7.42	0.969	18.8
Oc1cccc2c1NCCC2	1.96	> 100	0.109	1.85	0.541	> 100	0.135	98.9	0.14	> 47.3	3.07	35.2	0.164	> 100	0.119	> 100	4.35	> 100	0.121	> 76.2
CC1c2ccccc2CCN1c1ccc(CO)c(Cl)c1 (centres undefined)	0.0346	0.187	13.8	27.1	17.2	37.7	22.7	54.6	19.1	47.3	0.0491	0.228	34.5	> 100	19.6	> 83.5	0.0427	0.187	15.3	> 57
C/C(=N\O)c1cccc(Nc2cc(-n3ccnc3)c3ccccc3n2)c1	15.6	38.8	13.9	27.2	17	35.1	11.1	25.3	17.2	33.5	3.59	20.9	17.5	43.6	24.8	76.6	20.9	40.9	16.2	38.2
Fc1cccc(F)c1C(Nc1nncs1)Nc1nncs1		> 100		> 100		> 100		> 100		> 100		> 100		> 100		> 100		> 100		> 100
COc1ccc2c(c1)C(=O)c1c-2c(OCCN(C)C)nc2ccccc12	7.56	20.8	4.6	16.6	12	26	2.46	8.65	4.75	17.9	2.15	10.4	2.68	12.4	4.99	21.4	4.53	18.5	1.69	10.6
Cc1[nH]nc(-c2ccon2)c1N=O		32.9		34.3		38		38.2		32.7		28.6		64.8		70.3		35.1		42
FC(F)(F)c1cccc(-c2nn3ncccc3c2-c2ccnc(Nc3ccc4c(c3)OCCO4)n2)c1	8.49	> 25	7.87	> 25	16.4	> 25	> 25	> 25	> 25	> 25	14.2	> 25	> 25	> 25	10.5	> 25	> 25	> 25	11.7	> 25
